Laboratory results reported in PubChem BioAssay (NCI).
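Grown in 96-well plates, cells were treated for 48 hours with each compound at five concentrations. Insufficient inhibition: endpoint recorded as highest concentration tested. TGI marks complete inhibition of growth.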

Legend:
Test in all cases: growth of human tumour cells (NCI), 48 h
NCI-H522 lung = tested on: NCI-H522 lung
UO-31 renal = tested on: UO-31 renal
UACC-257 melanoma = tested on: UACC-257 melanoma
T-47D breast = tested on: T-47D breast
PC-3 prostate = tested on: PC-3 prostate
OVCAR-4 ovarian = tested on: OVCAR-4 ovarian
NCI-H23 lung = tested on: NCI-H23 lung
SF-295 CNS = tested on: SF-295 CNS
ACHN renal = tested on: ACHN renal
MDA-MB-435 = tested on: MDA-MB-435
HL-60(TB) leukemia = tested on: HL-60(TB) leukemia
OVCAR-8 ovarian = tested on: OVCAR-8 ovarian
MDA-MB-231 breast = tested on: MDA-MB-231 breast
HT29 colon = tested on: HT29 colon
SNB-75 CNS = tested on: SNB-75 CNS
SK-MEL-28 melanoma = tested on: SK-MEL-28 melanoma
MCF7 breast = tested on: MCF7 breast
HOP-62 NSCLC = tested on: HOP-62 NSCLC
HCT-15 colon = tested on: HCT-15 colon
DU-145 prostate = tested on: DU-145 prostate
RPMI-8226 leukemia = tested on: RPMI-8226 leukemia
NCI-H226 lung = tested on: NCI-H226 lung
TK-10 renal = tested on: TK-10 renal
SK-MEL-5 melanoma = tested on: SK-MEL-5 melanoma
A549 NSCLC = tested on: A549 NSCLC
IGROV1 ovarian = tested on: IGROV1 ovarian
SR leukemia = tested on: SR leukemia
HS 578T breast = tested on: HS 578T breast
HCC-2998 colon = tested on: HCC-2998 colon
M14 melanoma = tested on: M14 melanoma
SK-MEL-2 melanoma = tested on: SK-MEL-2 melanoma
KM12 colon = tested on: KM12 colon
LOX IMVI melanoma = tested on: LOX IMVI melanoma
CCRF-CEM leukemia = tested on: CCRF-CEM leukemia
RXF 393 renal = tested on: RXF 393 renal
SF-268 CNS = tested on: SF-268 CNS
MOLT-4 leukemia = tested on: MOLT-4 leukemia
HCT-116 colon = tested on: HCT-116 colon
OVCAR-5 ovarian = tested on: OVCAR-5 ovarian
CAKI-1 renal = tested on: CAKI-1 renal
COLO 205 colon = tested on: COLO 205 colon
HOP-92 NSCLC = tested on: HOP-92 NSCLC
UACC-62 melanoma = tested on: UACC-62 melanoma
SNB-19 CNS = tested on: SNB-19 CNS
OVCAR-3 ovarian = tested on: OVCAR-3 ovarian
SF-539 CNS = tested on: SF-539 CNS
SW-620 colon = tested on: SW-620 colon
EKVX NSCLC = tested on: EKVX NSCLC
NCI/ADR-RES ovarian = tested on: NCI/ADR-RES ovarian
A498 renal = tested on: A498 renal
K-562 leukemia = tested on: K-562 leukemia
NCI-H460 lung = tested on: NCI-H460 lung
SN12C renal = tested on: SN12C renal
786-0 renal = tested on: 786-0 renal
MDA-N = tested on: MDA-N
MALME-3M melanoma = tested on: MALME-3M melanoma
SK-OV-3 ovarian = tested on: SK-OV-3 ovarian
BT-549 breast = tested on: BT-549 breast

In the case of CCOc1cc(NC(C)=O)ccc1C(=O)NN1C(=O)CSC1c1ccc(O)c(OC)c1 (stereo not drawn), the TGI (NCI-H522 lung) is reported as greater than 100 µM, the TGI (UO-31 renal) is reported as 29.5 µM and the TGI (UACC-257 melanoma) is reported as greater than 100 µM. The TGI (T-47D breast) was greater than 100 µM, the TGI (PC-3 prostate) was greater than 100 µM and the TGI (OVCAR-4 ovarian) was greater than 100 µM. It also gave a TGI (NCI-H23 lung) greater than 100 µM, a TGI (SF-295 CNS) greater than 100 µM and a TGI (ACHN renal) greater than 100 µM. For the same compound, the TGI (MDA-MB-435) was greater than 100 µM, the TGI (HL-60(TB) leukemia) was greater than 100 µM and the TGI (OVCAR-8 ovarian) was greater than 100 µM. For the same compound, the TGI (MDA-MB-231 breast) was greater than 100 µM, the TGI (HT29 colon) was greater than 100 µM and the TGI (SNB-75 CNS) was greater than 100 µM. For the same compound, the TGI (SK-MEL-28 melanoma) was greater than 100 µM, the TGI (MCF7 breast) was greater than 100 µM and the TGI (HOP-62 NSCLC) was greater than 100 µM. The TGI (HCT-15 colon) was greater than 100 µM, the TGI (DU-145 prostate) was greater than 100 µM and the TGI (RPMI-8226 leukemia) was greater than 100 µM. For the same compound, the TGI (NCI-H226 lung) was greater than 100 µM, the TGI (TK-10 renal) was 39.3 µM and the TGI (SK-MEL-5 melanoma) was greater than 100 µM. It also gave a TGI (A549 NSCLC) greater than 100 µM, a TGI (IGROV1 ovarian) greater than 100 µM and a TGI (SR leukemia) greater than 100 µM. For the same compound, the TGI (HS 578T breast) was greater than 100 µM, the TGI (HCC-2998 colon) was greater than 100 µM and the TGI (M14 melanoma) was greater than 100 µM. It also gave a TGI (SK-MEL-2 melanoma) greater than 100 µM, a TGI (KM12 colon) greater than 100 µM and a TGI (LOX IMVI melanoma) greater than 100 µM. It also gave a TGI (CCRF-CEM leukemia) greater than 100 µM, a TGI (RXF 393 renal) greater than 100 µM and a TGI (SF-268 CNS) greater than 100 µM. The TGI (MOLT-4 leukemia) was greater than 100 µM, the TGI (HCT-116 colon) was greater than 100 µM and the TGI (OVCAR-5 ovarian) was greater than 100 µM. For the same compound, the TGI (CAKI-1 renal) was greater than 100 µM, the TGI (COLO 205 colon) was greater than 100 µM and the TGI (HOP-92 NSCLC) was greater than 100 µM. For the same compound, the TGI (UACC-62 melanoma) was greater than 100 µM, the TGI (SNB-19 CNS) was greater than 100 µM and the TGI (OVCAR-3 ovarian) was greater than 100 µM. For the same compound, the TGI (SF-539 CNS) was greater than 100 µM, the TGI (SW-620 colon) was greater than 100 µM and the TGI (EKVX NSCLC) was greater than 100 µM. For the same compound, the TGI (NCI/ADR-RES ovarian) was greater than 100 µM, the TGI (A498 renal) was greater than 100 µM and the TGI (K-562 leukemia) was greater than 100 µM. For the same compound, the TGI (NCI-H460 lung) was greater than 100 µM, the TGI (SN12C renal) was greater than 100 µM and the TGI (786-0 renal) was greater than 100 µM. The TGI (MDA-N) was greater than 100 µM, the TGI (MALME-3M melanoma) was greater than 100 µM and the TGI (SK-OV-3 ovarian) was greater than 100 µM. The TGI (BT-549 breast) was 98.6 µM.
